# Test results from PMC8465942, “Cyano- and Ketone-Containing Selenoesters as Multi-Target Compounds against Resistant Cancers” (Cancers, 2021).
# “Also recorded” adds a separate entry of the source. Where two headings read alike, the source gives them in different places. Marks after values point to notes of the source that are not given here.
# What was measured:
# [1] = tested on: Colo 205 human colonic adenocarcinoma cell line; assay: Cytotoxicity (MTT) on sensitive Colo 205 cells; type: cell-based; conditions: for IC50: Homo sapiens, read-out: Colo 205 (IC50 µM) Mean; for SI MRC-5/Colo 205: ratio IC50 non-tumour cells / IC50 cancer cells
# Source text: Three cell lines have been used in this study: the doxorubicin-sensitive Colo 205 (CCL-222, ATCC, Manassas, VA, USA) human colonic adenocarcinoma cell line; the multidrug resistant Colo 320/MDR-LRP expressing P-gp (MDR1)-LRP (CCL-220.1, ATCC) human colonic adenocarcinoma cell line; and the MRC-5 human embryonal lung fibroblast cell line (CCL-171, ATCC). The colon adenocarcinoma cell lines were purchased from LGC Promochem (Teddington, UK), and the MRC-5 cell line was purchased from Sigma-Aldrich (Merck KGaA, Darmstadt, Germany). Their culture conditions are as follows: Colo 205 (CCL-222, ATCC) and Colo 320/MDR-LRP expressing P-gp (MDR1)-LRP (CCL-220.1, ATCC) human colon adenocarcinoma cell lines were cultured in RPMI 1640 medium, supplemented with 10% FBS, 2 mM L-glutamine, 1 mM Na-pyruvate, and […]. The cell lines were incubated at 37 °C, 5% CO2, and 95% air atmosphere. The semi-adherent human colon cancer cells were detached with a Trypsin-Versene (EDTA) solution for 5 min at 37 °C. MRC-5 human embryonal lung fibroblast cells were cultured in EMEM containing 4.5 g/L of glucose and supplemented with a non-essential amino acid mixture, a selection of vitamins, and 10% FBS. The cell lines were incubated at 37 °C, 5% CO2, and 95% air atmosphere.
# The effects of increasing concentrations of the compounds on cell growth were tested in 96-well flat-bottomed microtiter plates. Moreover, 10^4 of human colonic adenocarcinoma cells in 100 μL of the medium (RPMI-1640) were added to each well, except for the medium control wells. The adherent human embryonic lung fibroblast cell line was seeded in the EMEM medium for 4 h before the assay. The two-fold serial dilutions of the compounds were made in a separate plate (0.19–100 μM), and then transferred to the plates containing the adherent corresponding cell line. Culture plates were incubated at 37 °C for 24 h. At the end of the incubation period, 20 μL of MTT (thiazolyl blue tetrazolium bromide) solution (from a 5 mg/mL stock solution) were added to each well. After incubation at 37 °C for 4 h, 100 μL of sodium dodecyl sulfate (SDS) solution (10% SDS in 0.01 M HCl) was added to each well, and the plates were further incubated at 37 °C overnight. Cell growth was determined by measuring the optical density (OD) at 540 nm (ref. 630 nm) with a Multiscan EX ELISA reader (Thermo Labsystems, Cheshire, WA, USA). Inhibition of cell growth was expressed as IC50 values, defined as the inhibitory dose that reduces the growth of the cells exposed to the tested compounds by 50%. IC50 values and the SD of triplicate experiments were calculated by using GraphPad Prism software version 5.00 for Windows, with a non-linear regression curve fit (GraphPad Software, San Diego, CA, USA; www.graphpad.com, accessed on 12 July 2021). Doxorubicin (from a 2 mg/mL stock solution, Teva Pharmaceuticals) was used as a positive control.
# (§1) The selectivity indexes (SI) were calculated as the ratio of the IC50 value in the non-tumour cells and the IC50 in the cancer cell lines. The compound’s activity towards cancer cells is considered as strongly selective if the selectivity index (SI) value is higher than 6, moderately selective if 3 < SI < 6, slightly selective if 1 < SI < 3, and non-selective if SI is lower than 1 [16].
# [2] = tested on: HeLa (cervical adenocarcinoma); assay: Cytotoxicity on HeLa cells; type: cell-based; conditions: Homo sapiens
# Experimental: The activity of selenoesters was tested on several cancer cell lines, including HepG2 (hepatocellular carcinoma, CCL-23TM, ATCC); HeLa (cervical adenocarcinoma, CCL-2TM, ATCC); B16 (skin melanoma, CCL-6322TM, ATCC); and a non-cancerous cell line, HDF (human dermal fibroblasts, Sigma-Aldrich). HepG2, HeLa, B16, and HDF cell lines were cultivated in EMEM medium supplemented with 10% FBS, 2 mM L-glutamine, and 1% penicillin-streptomycin mixture. The HaCaT cell line was cultivated in DMEM medium supplemented with 10% FBS and 1% penicillin-streptomycin mixture. All of the cells were cultivated in a CO2 incubator (5% CO2, 37 °C). Twice per week, the cell lines were passaged according to a standardized protocol with a trypsin-EDTA solution.
# as §1
# [3] = tested on: resistant Colo 320 colon adenocarcinoma cells expressing the ABCB1 transporter; assay: Checkerboard combination assay with doxorubicin; type: cell-based, human
# Experimental: A checkerboard microplate method was applied to study the effect of drug interactions between the selenocompounds and the chemotherapeutic drug doxorubicin on resistant Colo 320 colon adenocarcinoma cells expressing the ABCB1 transporter. Results were expressed in terms of the combination index (CI) values at 50% growth inhibition (ED50), which were determined by using CompuSyn software to plot 4 or 5 data points for each ratio.
# To perform the experiment, the dilutions of doxorubicin were made in a horizontal direction in 100 µL, and the dilutions of the Se-compounds were made vertically in the microtiter plate in a volume of 50 µL. The cells were re-suspended in the culture medium and distributed into each well in 50 µL portions containing 6000 cells. The plates were incubated for 72 h at 37 °C in a CO2 incubator. The cell growth rate was determined after MTT staining. At the end of the incubation period, 20 μL of MTT solution was added to each well. After incubation at 37 °C for 4 h, 100 μL of SDS was added to each well and the plates were further incubated at 37 °C overnight. The optical density (OD) was measured at 540/630 nm with the Multiscan EX ELISA reader.
# [4] = tested on: HepG2 (hepatocellular carcinoma); assay: Cytotoxicity on HepG2 cells; type: cell-based, human; conditions: ratio IC50 non-tumour cells / IC50 cancer cells
# B16 (skin melanoma) = assay: Cytotoxicity on B16 cells; type: cell-based, murine; conditions: ratio IC50 non-tumour cells / IC50 cancer cells
# [5] = ratio 0.7:1, starting conc. 6 µM
# [6] = ratio 1.4:1, starting conc. 6 µM
# [7] = ratio 2.8:1, starting conc. 6 µM
# [8] = ratio 5.6:1, starting conc. 6 µM
# [9] = ratio 11.2:1, starting conc. 6 µM
# [10] = ratio 22.4:1, starting conc. 6 µM
# [11] = in at least one of the ratios tested
# [12] = ratio 0.6:1, starting conc. 5 µM
# [13] = ratio 1.2:1, starting conc. 5 µM
# [14] = ratio 2.4:1, starting conc. 5 µM
# [15] = ratio 4.8:1, starting conc. 5 µM
# [16] = ratio 9.6:1, starting conc. 5 µM
Structure (SMILES),"IC50 ([1]; COLO 205, 24 h) [µM]",SI MRC-5/Colo 205 [1],IC50 [2] [µM],"Type of Interaction [3, 5]","Type of Interaction [3, 6]","Type of Interaction [3, 7]","Type of Interaction [3, 8]","Type of Interaction [3, 9]","Type of Interaction [3, 10]",SI MRC-5/HepG2 [4],SI MRC-5/B16 (B16 (skin melanoma)),"IC50 ([1]; COLO 205, 24 h, MTT) [µM]","Interaction with doxorubicin [3, 11]",other results
"CC(=O)C[Se]C(=O)c1ccc(C(C)(C)C)cc1 [K7, Se-(2-Oxopropyl) 4-(Tert-butyl)benzoselenoate]",2.69,1.38,2.7,Moderate antagonism,Antagonism,Moderate antagonism,Moderate antagonism,Antagonism,Antagonism,1.0,2.7,–,–,–
"CC(=O)C[Se]C(=O)c1ccccc1F [K2, Se-(2-Oxopropyl) 2-Fluorobenzoselenoate]",–,–,2.5,Antagonism,Antagonism,Slight antagonism,Additive effect,Antagonism,Antagonism,1.1,2.1,3.35,–,–
"CC(=O)C[Se]C(=O)c1cccc(C(F)(F)F)c1 [K5, Se-(2-Oxopropyl) 3-(Trifluoromethyl)benzoselenoate]",–,1.45,2.5,Synergism,Moderate synergism,Synergism,Synergism,Synergism,Synergism,1.3,2.8,2.14,synergistic manner; also recorded: interact synergistically,Interaction with doxorubicin ([3]; in all ratios tested): synergistic interaction
"CC(=O)C[Se]C(=O)c1ccc(Br)cc1 [K3, Se-(2-Oxopropyl) 4-Bromobenzoselenoate]",2.28,1.25,2.1,Moderate antagonism,Synergism,Moderate synergism,Antagonism,Moderate antagonism,Antagonism,–,1.3,–,synergistic manner; also recorded: interact synergistically,–
"N#CC[Se]C(=O)c1ccccc1C(F)(F)F [N4, Se-(Cyanomethyl) 2-(Trifluoromethyl)benzoselenoate]",–,–,2.5,–,–,–,–,–,–,>6 *,–,1.97,synergistic manner; also recorded: synergistic effect,"Type of Interaction ([3]; ratio 1.2:1, starting conc. 10 µM): Antagonism; Type of Interaction ([3]; ratio 2.4:1, starting conc. 10 µM): Strong antagonism; Type of Interaction ([3]; ratio 4.8:1, starting conc. 10 µM): Moderate synergism; Type of Interaction ([3]; ratio 9.6:1, starting conc. 10 µM): Additive effect; Type of Interaction ([3]; ratio 19.2:1, starting conc. 10 µM): Slight antagonism; Type of Interaction ([3]; ratio 38.4:1, starting conc. 10 µM): Moderate antagonism"
"CC(=O)C[Se]C(=O)c1ccc(F)c(Cl)c1 [K6, Se-(2-Oxopropyl) 3-Chloro-4-fluorobenzoselenoate]",–,1.73,2.3,Synergism,Moderate synergism,Synergism,Synergism,Synergism,Synergism,–,2.8,2.1,synergistic manner; also recorded: interact synergistically,Interaction with doxorubicin ([3]; in all ratios tested): synergistic interaction
"CC(=O)C[Se]C(=O)c1cccs1 [K1, Se-(2-Oxopropyl) Thiophene-2-carboselenoate]",–,1.46,2.5,–,–,–,–,–,–,–,2.6,1.53,synergistic manner; also recorded: interact synergistically,"Type of Interaction [3, 12]: Antagonism; Type of Interaction [3, 13]: Additive effect; Type of Interaction [3, 14]: Additive effect; Type of Interaction [3, 15]: Slight synergism; Type of Interaction [3, 16]: Slight antagonism"
"N#CC[Se]C(=O)c1cc(C(F)(F)F)cc(C(F)(F)F)c1 [N7, Se-(Cyanomethyl) 3,5-Bis(trifluoromethyl)benzoselenoate]",–,–,2.1,–,–,–,–,–,–,>6 *,–,1.98,synergistic manner; also recorded: synergistic effect,"Type of Interaction ([3]; ratio 0.9:1, starting conc. 8 µM): Antagonism; Type of Interaction ([3]; ratio 1.8:1, starting conc. 8 µM): Strong antagonism; Type of Interaction ([3]; ratio 3.6:1, starting conc. 8 µM): Slight synergism; Type of Interaction ([3]; ratio 7.2:1, starting conc. 8 µM): Antagonism; Type of Interaction ([3]; ratio 14.4:1, starting conc. 8 µM): Antagonism; Type of Interaction ([3]; ratio 28.8:1, starting conc. 8 µM): Additive effect"
"CC(=O)C[Se]C(=O)c1ccccc1C(F)(F)F [K4, Se-(2-Oxopropyl) 2-(Trifluoromethyl)benzoselenoate]",1.05,–,1.9,–,–,–,–,–,–,–,1.4,–,synergistic manner; also recorded: interact synergistically,"Type of Interaction [3, 12]: Synergism; Type of Interaction [3, 13]: Additive effect; Type of Interaction [3, 14]: Additive effect; Type of Interaction [3, 15]: Moderate synergism; Type of Interaction [3, 16]: Slight synergism; Type of Interaction ([3]; ratio 19.2:1, starting conc. 5 µM): Additive effect"
